Reference: US4672068A, “Antihypertensive 1,4-dihydropyridines having a conjugated ester” (Fujirebio Kabushiki Kaisha, priority 1984, dated 1987)

What was measured:
[1] = tested on: Male spontaneously hypertensive rats (SHR), arterial blood pressure; assay: Depressor response after intravenous administration (30 μg/kg), Table 1; assay type: in vivo, rat; details: for Duration: '90<' means greater than 90
Procedure, shortened: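 Conscious restrained SHR with mean arterial pressure above 140 mmHg; pressure recorded via abdominal aortic catheter and transducer. Dosing was at least 2 h after surgery, through a caudal vein catheter. Compound was given in 1.5% PVP/ethanol diluted with 0.9% saline.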

[2] = tested on: Male spontaneously hypertensive rats (SHR), arterial blood pressure; assay: Depressor response after intraduodenal administration (1 mg/kg), Table 2; assay type: in vivo, rat; details: for Half-life: '120<' means greater than 120
Method: Arterial blood pressure was measured through the catherized artery with a pressure transducer (MPU-0.5, manufactured by Nihon Kohden Kabushiki Kaisha). The catheter was inserted into the abdominal aorta via the median coccygcal artery of SHR under light ether anesthesia. The recordings were made on a rectigraph (manufactured by Sanei Sokki Kabushiki Kaisha). The 1,4-dihydropyridine derivatives prepared in the foregoing examples were administered with catheter which was inserted previously into the caudal vein or duodenum at least two hours after the operation. SHR were restrained with wire mesh cage immediately after the operation.

[3] = in vivo; details: mouse, iv
Method: Acute toxicity of several derivatives was tested with male ddy mice weighed 15-30 grams by the up and down method. Each derivative was dissolved in 1.5% PVP/ethanol solution, and diluted with a saline solution. Such derivative solution was injected into the caudal vein, and the acute toxicity was determined.

[4] = tested on: rat (SHR), blood pressure and heart rate; assay: Depressor response of trans- and cis-forms, dose-response intravenous, Tables 5 and 6; assay type: in vivo; details: for ED40: Rattus norvegicus, intravenous, from regression line
Method: Male spontaneously hypertensive rats (SHR) which had mean arterial blood pressures higher than 140 mmHg were used for the experiments. Arterial blood pressure was measured through the catherized artery with a pressure transducer (MPU-0.5, manufactured by Nihon Kohden Kabushiki Kaisha). The catheter was inserted into the abdominal aorta via the median coccygcal artery of SHR under light ether anesthesia. The recordings were made on a rectigraph (manufactured by Sanei Sokki Kabushiki Kaisha). The 1,4-dihydropyridine derivatives prepared in the foregoing examples were administered with catheter which was inserted previously into the caudal vein or duodenum at least two hours after the operation. SHR were restrained with wire mesh cage immediately after the operation. […]

[5] = tested on: Male SHR, systolic blood pressure; assay: Systolic blood pressure by tail cuff method, oral administration (3 mg/kg), Table 4; assay type: in vivo, rat; details: conscious SHR; for Duration: '24<' means greater than 24
Method: Systolic blood pressure was measured by the tail cuff method with electrophygmomanometer (PE-300, made by Narco Co.). Each derivative (3 mg/kg) was administered orally, suspended in 5% gum arabic solution.

[6] = male ddy mice, caudal vein injection, '60<' means greater than 60

## COC(=O)C1=C(C)NC(C)=C(C(=O)OCC/C=C/c2ccc3ccccc3c2)C1c1cccc([N+](=O)[O-])c1 (stereo not drawn) [12 (trans), 4-β-naphthyl-3-butenyl methyl 4-(3-nitrophenyl)-2,6-dimethyl-1,4-dihydropyridine-3,5-dicarboxylate]
[1]
  The time to reach the lowest BP: 3.0 min
  ΔBP (Maximum depressor response): 50 mmHg
  Duration: > 90 min
[2]
  The time to reach the lowest BP: 50 min
  ΔBP (Maximum depressor response): 25 mmHg
  Half-life: 100 min
[3]
  LD50: > 60 mg/kg
[4]; 10 μg/kg i.v.
  Depressure Response MaxΔBP: 21.7 mmHg
  Depressure Response Peak: 2.8 min
  MaxΔHR (Heart rates): 43.3 beats/min
  T 1/2 (Halflife): 11.3 min
[4]; 30 μg/kg i.v.
  Depressure Response MaxΔBP: 54.8 mmHg
  Depressure Response Peak: 4.1 min
  MaxΔHR (Heart rates): 90.0 beats/min
  T 1/2 (Halflife): 16.0 min
[4]; 100 μg/kg i.v.
  Depressure Response MaxΔBP: 72.5 mmHg
  Depressure Response Peak: 4.3 min
  MaxΔHR (Heart rates): 80.0 beats/min
  T 1/2 (Halflife): 37.5 min
[4]
  ED40: 0.0199 mg/kg

## COC(=O)C1=C(C)NC(C)=C(C(=O)OCC#Cc2ccccc2)C1c1cccc([N+](=O)[O-])c1 (stereo not drawn) [Example 55, Methyl phenylpropargyl 4-(3-nitrophenyl)-2,6-dimethyl-1,4-dihydropyridine-3,5-dicarboxylate]
[1]
  The time to reach the lowest BP: 2 min
  ΔBP (Maximum depressor response): 55 mmHg
  Duration: > 90 min
[2]
  The time to reach the lowest BP: 60 min
  ΔBP (Maximum depressor response): 45 mmHg
  Half-life: > 240 min
[3]; [6]
  LD50: > 60 mg/kg
[5]
  ΔBP After 1 hour: -65 mmHg
  ΔBP After 3 hours: -75 mmHg
  Duration: > 24 h

## COC(=O)C1=C(C)NC(C)=C(C(=O)OCC/C=C\c2ccc3ccccc3c2)C1c1cccc([N+](=O)[O-])c1 (stereo not drawn) [Example 57, Methyl (Z)-4-(2-naphthyl)-3-butenyl 4-(3-nitrophenyl)-2,6-dimethyl-1,4-dihydropyridine-3,5-dicarboxylate (cis)]
[1]
  The time to reach the lowest BP: 2.6 min
  ΔBP (Maximum depressor response): 26.8 mmHg
[3]; [6]
  LD50: > 75 mg/kg
[4]; 10 μg/kg i.v.
  Depressure Response MaxΔBP: 12.0 mmHg
  Depressure Response Peak: 3.2 min
  MaxΔHR (Heart rates): 23.3 beats/min
  T 1/2 (Halflife): 14.0 min
[4]; 30 μg/kg i.v.
  Depressure Response MaxΔBP: 26.8 mmHg
  Depressure Response Peak: 2.6 min
  MaxΔHR (Heart rates): 62.5 beats/min
  T 1/2 (Halflife): 15.0 min
[4]; 100 μg/kg i.v.
  Depressure Response MaxΔBP: 68.5 mmHg
  Depressure Response Peak: 3.8 min
  MaxΔHR (Heart rates): 120 beats/min
  T 1/2 (Halflife): 25.0 min
[4]
  ED40: 0.0408 mg/kg

## COC(=O)C1=C(C)NC(C)=C(C(=O)OCC=Cc2ccco2)C1c1cccc([N+](=O)[O-])c1 (stereo not drawn) [Example 7, 3-(2furyl)-2-propenyl methyl 4-(3-nitrophenyl)-2,6-dimethyl-1,4-dihydropyridine-3,5-dicarboxylate]
[2]
  The time to reach the lowest BP: 105 min
  ΔBP (Maximum depressor response): 20 mmHg
  Half-life: > 120 min
[3]; [6]
  LD50: > 60 mg/kg

## COC(=O)C1=C(C)NC(C)=C(C(=O)OCCC=Cc2ccc(SC)cc2)C1c1cccc([N+](=O)[O-])c1 (stereo not drawn) [Example 24, 4-(p-methylthiophenyl)-3-butenylmethyl 4-(3-nitrophenyl)-2,6-dimethyl-1,4-dihydropyridine-3,5-dicarboxylate]
[1]
  The time to reach the lowest BP: 2.1 min
  ΔBP (Maximum depressor response): 60 mmHg
  Duration: 120 min
[2]
  The time to reach the lowest BP: 160 min
  ΔBP (Maximum depressor response): 27 mmHg
  Half-life: > 160 min
[3]; [6]
  LD50: 50 mg/kg

## COC(=O)C1=C(C)NC(C)=C(C(=O)OC/C=C/c2ccccc2)C1c1cccc([N+](=O)[O-])c1 (stereo not drawn) [Example 1, cinnamyl methyl 4-(3-nitrophenyl)-2,6-dimethyl-1,4-dihydropyridine-3,5-dicarboxylate (trans)]
[1]
  The time to reach the lowest BP: 1.7 min
  ΔBP (Maximum depressor response): 44 mmHg
  Duration: > 90 min
[2]
  The time to reach the lowest BP: 43.7 min
  ΔBP (Maximum depressor response): 35.0 mmHg
  Half-life: > 120 min
[5]
  ΔBP After 1 hour: -75 mmHg
  ΔBP After 3 hours: -80.5 mmHg
  Duration: 7 to 24 h
[4]; 10 μg/kg i.v.
  Depressure Response MaxΔBP: 35.0 mmHg
  Depressure Response Peak: 2.0 min
  MaxΔHR (Heart rates): 28.3 beats/min
  T 1/2 (Halflife): 32.6 min
[4]; 30 μg/kg i.v.
  Depressure Response MaxΔBP: 52.2 mmHg
  Depressure Response Peak: 1.8 min
  MaxΔHR (Heart rates): 65.3 beats/min
  T 1/2 (Halflife): 26.7 min
[4]; 100 μg/kg i.v.
  Depressure Response MaxΔBP: 69.0 mmHg
  Depressure Response Peak: 2.0 min
  MaxΔHR (Heart rates): 32.5 beats/min
  T 1/2 (Halflife): 48.5 min
[4]
  ED40: 0.0156 mg/kg

## COC(=O)C1=C(C)NC(C)=C(C(=O)OCCN(C)Cc2ccccc2)C1c1cccc([N+](=O)[O-])c1.Cl (stereo not drawn) [B, 4-(m-nitrophenyl)-2,6-dimethyl-1,4-dihydropyridine-3,5-dicarboxylic acid-3-methyl ester-5-[2-(benzylmethylamino)-ethyl]ester hydrochloride, reference compound]
[1]
  The time to reach the lowest BP: 0.6 min
  ΔBP (Maximum depressor response): 58.3 mmHg
  Duration: 45 to 90 min
[2]
  The time to reach the lowest BP: 10.7 min
  ΔBP (Maximum depressor response): 35 mmHg
  Half-life: 46.7 min
[3]; [6]
  LD50: 9.7 mg/kg
[5]
  ΔBP After 1 hour: -27 mmHg
  ΔBP After 3 hours: -4.5 mmHg
  Duration: < 3 h

## COC(=O)C1=C(C)NC(C)=C(C(=O)OCCC=Cc2ccc(C#N)cc2)C1c1cccc([N+](=O)[O-])c1 (stereo not drawn) [Example 17, 4-(4-cyanophenyl)-3-butenyl methyl 4-(3-nitrophenyl)-2,6-dimethyl-1,4-dihydropyridine-3,5-dicarboxylate]
[1]
  The time to reach the lowest BP: 1.0 min
  ΔBP (Maximum depressor response): 70 mmHg
  Duration: > 80 min
[2]
  The time to reach the lowest BP: 180 min
  ΔBP (Maximum depressor response): 25 mmHg
  Half-life: > 200 min
[3]; [6]
  LD50: 45 mg/kg
